# Source: patent US20220193025A1, “USE OF DIANHYDROHEXITOL TO ELIMINATE THE COSMETIC EFFECTS OF ACNE, DANDRUFF AND BAD ODORS” (ROQUETTE FRERES, priority 2019, published 2022)
# Experiments:
# Aspergillus brasiliensis = conditions: U.S. Pat. No. 9,295,626, table 2; cited from earlier work
# Malassezia furfur strain = assay: Example 2: microbial population count over 28 days after contamination (microtiter method, TTC); format: cell-based; conditions: for Number of colony forming strains after: 24 h / Number of colony forming strains after: 7 days / Number of colony forming strains after: 14 days / Number of colony forming strains after: 21 days / Number of colony forming strains after: 28 days: 22° C.
# Description: (§1) The samples are prepared under sterile conditions and deposited in microplates (2-ml wells) with the concentrations hereunder. Two analysis controls were produced: a positive control corresponding to 0.5% Phenonip®; a negative control consisting of 0.85% physiological saline solution. Samples and controls are contaminated by a Malassezia furfur fungal strain with around 1.50×10^4 to 3.80×10^4 colony forming units per milliliter, denoted cfu/ml. After contamination, the samples are carefully mixed by suction-discharge cycles in order to ensure a uniform distribution of the microorganism. The whole is incubated at 22° C. during 28 days. The microbial population is sampled and counted at 24 hours, 7, 14, 21 and 28 days for the bacterial strain. The contaminated samples are collected and then deposited in serial dilutions in microtiter plates, in the presence of culture medium, which is a saline solution with 0.85% sodium chloride, and a dehydrogenase activity indicator reagent, which is 2,3,5-triphenyltetrazolium chloride (denoted TTC). The results are presented in the following pages with the variation of the microbial population over the 28 days of study, for the tested microbial strain. The measurements of microbial populations in the samples collected at each time, are carried out according to the following microtiter method, for one sample collection. In the 96 wells with a volume of 250 μL of a microtiter plate, 20 μL of the collected sample are diluted by a factor of 10 by dispersion in 180 μL of Letheen broth (Difco, ref. 268110) containing 1.5% of Tween 80 (Sigma, ref. […]) and TTC (Sigma, ref. […]). The microplate is incubated for 48 hours at 32.5° C., and the growth of the microorganisms is monitored by the color change, from colorless to red/pink. The highest reciprocal dilution indicating a growth makes it possible to determine the log number of each microorganism at each time. The measurements of microbial populations taken at each collection time are expressed as colony forming units/ml.
# [1] = test system: Corynobacterium xerosis strain; assay: Example 3: microbial population count over 28 days after contamination (microtiter method, TTC); format: cell-based, Corynebacterium xerosis; conditions: for Number of colony forming strains after: 24 h / Number of colony forming strains after: 7 days / Number of colony forming strains after: 14 days / Number of colony forming strains after: 21 days / Number of colony forming strains after: 28 days: 22° C.
# Description: as §1, with “contaminated by three bacterial strains, Staphylococcus epidermidis, Corynebacterium xerosis and Propionobacterium acnes, with around” for “contaminated by a Malassezia furfur fungal strain with around”, “with around 1.43×10^5 to 4.15×10^5” for “with around 1.50×10^4 to 3.80×10^4”, “1.43×10^5 to 4.15×10^5 colony forming” for “1.50×10^4 to 3.80×10^4 colony forming”, “days for each bacterial strain.” for “days for the bacterial strain.”
# Candida albicans = conditions: U.S. Pat. No. 9,295,626, table 2; cited from earlier work
smiles,measurement,setting,value
"O[C@@H]1CO[C@H]2[C@@H]1OC[C@@H]2O [isosorbide, 1,4-3,6-dianhydrosorbitol]",minimum inhibitory concentration,Aspergillus brasiliensis,10%
same,effect on the strain (conclusion in words),Malassezia furfur strain,bactericide
same,colony forming strain observed,Malassezia furfur strain; after 24 hours,no colony forming strain is observed
same,Number of colony forming strains after: 24 h,Malassezia furfur strain; dose of isosorbide 1%,0 colony forming units/ml
same,Number of colony forming strains after: 7 days,Malassezia furfur strain; dose of isosorbide 1%,0 colony forming units/ml
same,Number of colony forming strains after: 14 days,Malassezia furfur strain; dose of isosorbide 1%,0 colony forming units/ml
same,Number of colony forming strains after: 21 days,Malassezia furfur strain; dose of isosorbide 1%,0 colony forming units/ml
same,Number of colony forming strains after: 28 days,Malassezia furfur strain; dose of isosorbide 1%,0 colony forming units/ml
same,Number of colony forming strains after: 24 h,Malassezia furfur strain; dose of isosorbide 5%,0 colony forming units/ml
same,Number of colony forming strains after: 7 days,Malassezia furfur strain; dose of isosorbide 5%,0 colony forming units/ml
same,Number of colony forming strains after: 14 days,Malassezia furfur strain; dose of isosorbide 5%,0 colony forming units/ml
same,Number of colony forming strains after: 21 days,Malassezia furfur strain; dose of isosorbide 5%,0 colony forming units/ml
same,Number of colony forming strains after: 28 days,Malassezia furfur strain; dose of isosorbide 5%,0 colony forming units/ml
same,Number of colony forming strains after: 24 h,Malassezia furfur strain; dose of isosorbide 9%,0 colony forming units/ml
same,Number of colony forming strains after: 7 days,Malassezia furfur strain; dose of isosorbide 9%,0 colony forming units/ml
same,Number of colony forming strains after: 14 days,Malassezia furfur strain; dose of isosorbide 9%,0 colony forming units/ml
same,Number of colony forming strains after: 21 days,Malassezia furfur strain; dose of isosorbide 9%,0 colony forming units/ml
same,Number of colony forming strains after: 28 days,Malassezia furfur strain; dose of isosorbide 9%,0 colony forming units/ml
same,bactericidal effect (conclusion in words),[1],moderate bactericide
same,reduction of the number of colony forming strains,"[1]; after 24 hours, for the three doses tested",at least 3 log 10
same,colony forming strain observed,[1]; after 7 days,not any more colony forming strain
same,Number of colony forming strains after: 24 h,[1]; dose 1%,4 × 10^2 colony forming units/ml
same,Number of colony forming strains after: 7 days,[1]; dose 1%,0 colony forming units/ml
same,Number of colony forming strains after: 14 days,[1]; dose 1%,0 colony forming units/ml
same,Number of colony forming strains after: 21 days,[1]; dose 1%,0 colony forming units/ml
same,Number of colony forming strains after: 28 days,[1]; dose 1%,0 colony forming units/ml
same,Number of colony forming strains after: 24 h,[1]; dose 5%,1 × 10^2 colony forming units/ml
same,Number of colony forming strains after: 7 days,[1]; dose 5%,0 colony forming units/ml
same,Number of colony forming strains after: 14 days,[1]; dose 5%,0 colony forming units/ml
same,Number of colony forming strains after: 21 days,[1]; dose 5%,0 colony forming units/ml
same,Number of colony forming strains after: 28 days,[1]; dose 5%,0 colony forming units/ml
same,Number of colony forming strains after: 24 h,[1]; dose 9%,3.7 × 10^2 colony forming units/ml
same,Number of colony forming strains after: 7 days,[1]; dose 9%,0 colony forming units/ml
same,Number of colony forming strains after: 14 days,[1]; dose 9%,0 colony forming units/ml
same,Number of colony forming strains after: 21 days,[1]; dose 9%,0 colony forming units/ml
same,Number of colony forming strains after: 28 days,[1]; dose 9%,0 colony forming units/ml
same,minimum inhibitory concentration,Candida albicans,10%
